Data: article PMC3227622, “GnRH receptor activation competes at a low level with growth signaling in stably transfected human breast cell lines” (BMC Cancer, 2011)
Entries after “also recorded” stand apart in the source; their conditions may differ. Like-named read-outs stand apart in the source and are kept apart here.

What was measured:
[1] = parameters: method as in PMID 17512856, PMID 19213681; conditions: by inhibiting secretion of luteinizing hormone and follicle stimulating hormone; ref [1],[2]; cited from earlier work
[2] = system: MCF-7hygro14 cells; assay: SRB cell growth assay, MCF-7hygro14 (MCF-7-30-7hygro14); format: cell-based, human; conditions: for effect on cell growth / effect on cell growth of co-treatment / IC50: 4 days; for IC50: 96 h, without co-treatment, read-out: IC50 growth inhibition
Procedure: (§1) Cells were cultured in Dulbecco's modified Eagle's medium (DMEM) with 10% fetal bovine serum. Medium for SVCT cells was supplemented with recombinant human insulin and hydrocortisone as specified by the suppliers (ECACC, UK). HEK293[SCL60] and WPE-1-NB26-8 cells were cultured as described elsewhere. Cells were transfected with a plasmid construct, pcDNA3.1(+) (neo) (Invitrogen, UK) containing a rat GnRH receptor cDNA insert, using Fugene 6 (Roche, UK) in Optimem-I (GIBCO, Invitrogen, UK). Cell clones growing in 6 cm dishes were picked using trypsinization in cloning cylinders (Sigma, UK) and sequentially expanded in multiwell plates and flasks prior to characterization. Sub-clones were generated by re-transfecting an individual clone with a 2.334 kb SV40 promoter-hygromycin phosphotransferase cDNA fragment excised from pcDNA3.1(-) (hygro) plasmid (Invitrogen, UK) using PvuII (Promega, UK) and purified following agarose gel electrophoresis.
(§2) Cells were seeded into 12 well plates and growth was monitored using the sulforhodamine B (SRB) staining assay described previously. Two milliliters culture medium per well was sufficient to sustain cell growth over all time courses investigated. Cells were treated with a dose range of Triptorelin or vehicle (20% propylene glycol, Sigma, UK). Similar experiments employing IGF-IR, EGFR/ErbB2 and PI3K inhibitors were performed. Assay measurements were performed in triplicate and were repeated on separate occasions. At each time point, cells were fixed by adding 1 ml 25% trichloroacetic acid to each well, stored at 4°C for 1 h before gently washing and drying plates. Fixed cells were stained with 0.4% SRB in 1% acetic acid, washed, dried and dissolved in 1 ml 0.1 M Tris pH 10. Absorbance measurements at 540 nm correlated with the number of cells per well.
(§3) Immuno-fluorescence data were analyzed by one-way ANOVA using Minitab version 16 (Minitab Inc., USA). Prism software (GraphPad, USA) was used to prepare graphs and to calculate EC50 and IC50 values. Western blots were quantified using ImageQuant software (GE Healthcare). Quantitative data were analyzed using on-line tools for T-test, http://easycalculation.com/statistics/standard-deviation.php and http://www.quantitativeskills.com/sisa/.

[3] = system: SVCT-2 cells; assay: SRB cell growth assay, SVCT-2 (rat GnRH receptor transfected); format: cell-based, human; conditions: for IC50: Homo sapiens; for IC50 / effect on cell growth of co-treatment / effect on cell growth: SRB; for effect on cell growth: single treatment
Procedure: as §1, §2, §3

[4] = system: p-ERK1/2 in MCF-7hygro14 cells; assay: p-ERK1/2 western blot, MCF-7hygro14; format: cell-based, human; conditions: for ERK1/2 re-phosphorylation after inhibitor wash-off: 1 h exposure to IGF-IR inhibitor II, then medium containing serum
Procedure: (§4) Cells were grown in six-well plastic culture plates until 50-70% confluent. Some samples were washed twice with phosphate buffered saline prior to incubation in serum-free medium overnight. Cells were treated with 100 nM Triptorelin or vehicle for specific time periods prior to lysis and harvesting. Samples were processed for western blotting as described previously using NP40 lysis buffer at 4°C [8, 9]. For quantitative data, time points were measured in triplicate. Blots were imaged by a Typhoon phosphor-imager (GE Healthcare, UK) using enhanced chemi-fluorescence detection and analyzed using ImageQuant software (GE Healthcare, UK).
as §3

[5] = system: MDA-MB-231-34 cells; assay: SRB cell growth assay, MDA-MB-231-34; format: cell-based, human; conditions: SRB (Triptorelin 100 nM)
Procedure: as §1
Cells were seeded into 12 well plates and growth was monitored using the sulforhodamine B (SRB) staining assay described previously. Two milliliters culture medium per well was sufficient to sustain cell growth over all time courses investigated. Cells were treated with a dose range of Triptorelin or vehicle (20% propylene glycol, Sigma, UK). […] Absorbance measurements at 540 nm correlated with the number of cells per well.

[6] = system: p-ERK1/2 in HEK293[SCL60] cells; assay: p-ERK1/2 western blot, HEK293[SCL60]; format: cell-based, human; conditions: IGF-IR inhibitor washed off, without Triptorelin
Procedure: as §4, §3

[7] = system: p-ERK1/2 in MDA-MB-231-34 cells; assay: p-ERK1/2 western blot, MDA-MB-231-34; format: cell-based, human; conditions: IGF-IR inhibitor II
Procedure: as §4, §3

[8] = system: HEK293[SCL60] cells; assay: SRB cell growth assay, HEK293[SCL60]; format: cell-based, human; conditions: SRB (Triptorelin: after 4 days)
Excerpt: Most reagents were purchased from Sigma UK, including D-Trp^6GnRH-I (D-Trp^6-LHRH, Triptorelin). Antibodies for ERK-1/2 and phosphorylated-ERK1/2 were purchased from Cell Signaling Technology, UK and for β-actin, from Sigma, UK. Secondary antibodies conjugated to alkaline phosphatase were from Sigma, UK. Insulin like growth factor receptor-I (IGF-IR) inhibitor II, EGFR/ErbB2 inhibitor and phosphatidylinositol-4,5-bisphosphate 3-kinase γ (PI3Kγ) inhibitor were purchased from Calbiochem, UK. SVCT cells were purchased from ECACC, UK. MCF-7, MDA-MB-231, ZR-75-1, and T47D cells were from American Type Culture Collection (LGC, UK). The GnRH receptor stably transfected HEK293[SCL60] and prostate WPE-1-NB26-8 cell lines described elsewhere together with HEK293 cells were used as controls for comparison.
Cells were cultured in Dulbecco's modified Eagle's medium (DMEM) with 10% fetal bovine serum. Medium for SVCT cells was supplemented with recombinant human insulin and hydrocortisone as specified by the suppliers (ECACC, UK). HEK293[SCL60] and WPE-1-NB26-8 cells were cultured as described elsewhere. […]
Cells were seeded into 12 well plates and growth was monitored using the sulforhodamine B (SRB) staining assay described previously. […] Absorbance measurements at 540 nm correlated with the number of cells per well.

[9] = 96 h, without co-treatment, 4 days, read-out: IC50 growth inhibition
[10] = co-treatment with 100 nM Triptorelin, 4 days
[11] = co-treatment with 100 nM Triptorelin, SRB
[12] = single treatment, SRB (Triptorelin 100 nM)
[13] = 15-20 μM IGF-IR inhibitor II, in the presence of serum
[14] = listed as IGF-I receptor inhibitor

In the case of goserelin, the “plasma levels of estrogen” value [1] is listed as “lowers plasma levels of estrogen”.
In the case of `O=C1NC(=O)C(=Cc2ccc3nccnc3c2)S1` [PI3Kγ inhibitor, 5-Quinoxalin-6-ylmethylene-thiazolidine-2,4-dione], the “effect on cell growth” value ([2]; PI3K inhibitor 5 nM to 7 μM, maximum dose 7 μM) is reported as “not affected”, the “effect on cell growth” value ([2]; PI3K inhibitor 5 nM to 7 μM, maximum dose 7 μM, listed as PI3K inhibitor) is reported as “did not affect growth; also recorded: lack of effect” and the “effect on cell growth of co-treatment” value ([2]; PI3K inhibitor up to 7 μM with 100 nM Triptorelin) is reported as “no significant growth-inhibition”. For the same molecule, the “effect on cell growth of co-treatment” value ([2]; PI3K inhibitor up to 7 μM with 100 nM Triptorelin, listed as PI3K inhibitor) was “did not significantly alter this result”.
With `COc1cc2ncnc(Nc3ccc(OCc4ccccc4)cc3)c2cc1OC` [EGFR/ErbB2 inhibitor, 4-(4-Benzyloxyanilino)-6,7-dimethoxyquinazoline] the IC50 [3, 9] was about 2 µM, the “growth inhibition relative to vehicle treated cells” value ([3]; after 4 days, SRB staining, 540 nm, DMEM with 10% fetal bovine serum, triplicate) was 50% and the “effect on cell growth of co-treatment” value [3, 10] was “did not significantly affect growth; also recorded: had no effect”. For the same molecule, the “effect on cell growth” value ([3]; 4 days) was “reduced SVCT-2 cell growth”, the IC50 ([2]; Homo sapiens, SRB) was about 5 µM and the growth inhibition ([2]; after 4 days, SRB) was 50%. The “effect on cell growth of co-treatment” value [2, 11] was “no significant growth-inhibition; also recorded: did not significantly affect growth” and the “effect on cell growth” value [2, 12] was “inhibited”.
With `COc1ccc(Cl)cc1NC(=O)Nc1cc(C)nc2ccccc12` [IGF-IR inhibitor II, N-(2-Methoxy-5-chlorophenyl)-N'-(2-methylquinolin-4-yl)-urea] the IC50 [3, 9] was about 11 µM, the IC50 ([3]; co-treatment with 100 nM Triptorelin, read-out: apparent IC50 growth inhibition) was about 9 µM and the “effect on cell growth of co-treatment” value [3, 10] was “small additive effect; also recorded: increased growth inhibition marginally”. The “effect on cell growth of co-treatment” value ([3]; co-treatment with 100 nM Triptorelin, 4 days, listed as IGF-IR inhibitor) was “small additive growth-inhibitory effect”, the “effect on cell growth” value ([3]; 4 days) was “complete growth inhibition accompanied by cell death; also recorded: effectively inhibited” and the “effect on levels of p-ERK1/2” value [4, 13] was “permanent decrease in levels of p-ERK1/2”. The “time to decrease in p-ERK1/2” value [4, 13] was at most 30 min, the “effect on levels of p-ERK1/2” value ([4]; 15-20 μM IGF-IR inhibitor II, in the presence of serum, listed as IGF-IR inhibitor) was “rapid and sustained de-phosphorylation of ERK1/2; also recorded: rapid decrease in the levels of p-ERK1/2” and the “ERK1/2 re-phosphorylation after inhibitor wash-off” value [4] was “rapid hyper-phosphorylation of ERK1/2 followed by a slow decline”. The “ERK1/2 re-phosphorylation after inhibitor wash-off” value [4, 14] was “Rapid re-phosphorylation of ERK1/2”, the “ERK1/2 re-phosphorylation after inhibitor wash-off” value ([4]; listed as IGF-IR inhibitor) was “rapid hyper-phosphorylation of ERK1/2, followed by a slow decline to basal levels” and the “effect on cell growth” value [5] was “inhibiting their growth also”. For the same molecule, the “ERK1/2 re-phosphorylation after inhibitor wash-off” value [6] was “hyper-phosphorylation of ERK1/2 did not occur”, the “ERK1/2 re-phosphorylation after inhibitor wash-off” value [6, 14] was “Re-phosphorylation of ERK1/2 was less marked” and the “ERK1/2 re-phosphorylation after inhibitor wash-off” value ([6]; listed as IGFR-IR inhibitor II) was “rapid hyper-phosphorylation of ERK1/2 did not occur”. For the same molecule, the “effect on levels of p-ERK1/2” value [7] was “did not elicit this effect”, the “effect on levels of p-ERK1/2” value ([7]; listed as IGF-IR inhibitor) was “not in MDA-MB-231-34 cells; also recorded: did not affect levels of p-ERK1/2” and the IC50 ([2]; Homo sapiens, SRB) was about 17 µM. The inhibition at 15 µM ([2]; Homo sapiens, 15 μM, exposure up to 2 hours, PBS washout, growth over 4 days, read-out: growth inhibition after transient exposure and washout) was under 10%, the “effect on cell growth of co-treatment” value [2, 11] was “no significant effect” and the “growth inhibition after transient exposure and washout” value ([2]; exposure 6 hours or more, PBS washout, growth over 4 days) was “more than 20%”. For the same molecule, the “effect on cell growth” value [2, 12] was “Growth and survival were inhibited; also recorded: growth-inhibition and cell death” and the “effect on cell growth” value [8] was “inhibited”.
